Measured values from publication PMC9879991, “Biomolecular condensates formed by designer minimalistic peptides” (Nature Communications, 2023).
No end group written: not given here.

How the values were obtained:
[1] = Turbidity assay of WGR-1 (10 mM) in citrate, Tris and ammonium bicarbonate buffer; format: physicochemical; settings: 10 mM peptide, mean of n=3
Experimental: Supplementary Figure 2. Turbidity assay of WGR-1 (10 mM) in citrate buffer (pH 6-7), Tris buffer (pH 6-10) and ammonium bicarbonate buffer (ABC, pH 9-10). Turbidity was monitored at λ=500 nm.
Source data are provided as a Source Data file. […]
iii) Performed solution NMR analysis to determine the pKa of the terminal amine for each […]
The results of each analysis are detailed below: i) To analyze the effect of the ions in each of the buffers on peptide LLPS, we performed turbidity assay of 10 mM WGR-1 using citrate buffer at pH 6-7, tris buffer at pH 6-10 and ammonium carbonate buffer at pH 9-10, with 200 mM NaCl. For citrate buffer, we measured sample turbidity at pH 6, the optimal value for this buffer, and in addition at pH 7, to compare the effect of citrate and tris on LLPS. Similarly, we analyzed the turbidity in ammonium bicarbonate buffer at pH 9 in additional to pH 10, to compare the effect of tris and ammonium bicarbonate on LLPS.
Higher turbidity is observed at pH 7 with citrate compared to tris and with ammonium bicarbonate at pH 9-10 compared to tris. […]
bicarbonate facilitate LLPS, presumably by reducing the electrostatic repulsion between […]
citrate and -1/-2 for ammonium bicarbonate). […]
In light of these findings and the obvious ion effect, we decided to present the new phase diagrams in tris in main text Figure 2b and the phase diagrams with the different buffers in Supplementary Fig. 1. The text was revised accordingly (see revised manuscript, revised text is highlighted in red). In addition, the turbidity assay of the different buffers was added to […]
Supplementary Fig. 2. […]

[2] = molecular target: T1, GFP (Aequorea victoria, UniProt P42212); experiment: Encapsulation efficiency of peptide droplets, GFP payload; format: physicochemical; settings: C initial 50 µg/ml, 20 mM peptide; for %EE: 20 mM Tris + 0.2 M NaCl pH 8, 15,000 g 10 min, supernatant fluorescence Ex 395/Em 509 nm
T1 construct: purchased Abcam (purchased from Zotal)
Excerpt: Next, we studied how peptide composition affects the encapsulation efficiency of the droplets by using GFP, rhodamine B, and fluorescein as fluorescent payload model systems (Fig. 4). We analyzed the encapsulation efficiency of the fluorescent payloads by using both confocal microscopy and absorbance measurements of the payloads in the dilute vs. the condensed phase (Fig. 4a–c). […] WGR-1 has the highest EE of fluorescein. In addition to π-π interactions, WGR-1 might form hydrogen bonding with the hydroxyl groups or electrostatic interactions with the deprotonated carboxylic acid of the dye.
Stock solutions (1 mM) of the fluorescein and rhodamine B dye molecules were prepared in 20 mM Tris buffer. Coacervate solutions of 20 mM peptide were prepared in 20 mM Tris + 0.2 M NaCl at pH 8. From these, a volume of 148.5 µl was mixed with 1.5 µl of dye solution in a 1.5 ml Eppendorf tube and pipetted. After 10 min the samples were centrifuged at 15,000 × g for 10 min. A volume of 120 μl from the supernatant was collected and vortexed and then the absorbance of 35 μl triplicates was measured (at λ = 490 nm for fluorescein and λ = 555 nm for RhB) in a 384 well black plate by Biotek H1 synergy plate reader (purchased from Lumitron, Israel). For GFP, a 7.5 µl of 20 mM Tris buffer to a 7.5 μl GFP aliquot from the purchased stock solution. The 15 µl of GFP solution was added to 135 µl of peptide solution and was mixed in a 1.5 ml Eppendorf tube and pipetted. The concentration of GFP at the supernatant was measured via fluorescence. All experiments were performed in triplicate. The concentration of the supernatant solutions determinate by calibration curves. Imaging was made to 30 μl of uncentrifuged samples. Efficiency of encapsulation (%EE) was calculated using Eq. 2. 2 %EE=CT−Csup/CT

Sequence: WGRGRGRGWPGVGY [WGR-1]
- Turbidity as asorbance at 500 nm ([1]; AC (ammonium bicarbonate) buffer, pH 9, 200 mM NaCl): 2.028
- Turbidity as asorbance at 500 nm ([1]; AC (ammonium bicarbonate) buffer, pH 10, 200 mM NaCl): 2.068
- Turbidity as asorbance at 500 nm ([1]; Tris buffer, pH 6, 200 mM NaCl): 0.007333
- Turbidity as asorbance at 500 nm ([1]; Tris buffer, pH 7, 200 mM NaCl): 0.01967
- Turbidity as asorbance at 500 nm ([1]; Tris buffer, pH 8, 200 mM NaCl): 0.2073
- Turbidity as asorbance at 500 nm ([1]; Tris buffer, pH 9, 200 mM NaCl): 1.416
- Turbidity as asorbance at 500 nm ([1]; Tris buffer, pH 10, 200 mM NaCl): 1.71
- Turbidity as asorbance at 500 nm ([1]; citrate buffer, pH 6, 200 mM NaCl): 0.02367
- Turbidity as asorbance at 500 nm ([1]; citrate buffer, pH 7, 200 mM NaCl): 0.974
- %EE ([2]; replicate 1, given as fraction): 0.8616
- %EE ([2]; replicate 2, given as fraction): 0.9526
- %EE ([2]; replicate 3, given as fraction): 0.9328
- Encapsulation efficiency (EE) ([2]; 20 mM Tris + 0.2 M NaCl pH 8, supernatant fluorescence, average of replicates, in percent): 91.5647%
